Source: PubChem BioAssay (NCI)
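Interpolation was linear, between the two tested concentrations surrounding the appropriate level; five concentrations were tested over 48 hours in 96-well plates. Here, GI50 denotes the concentration required for 50% inhibition of growth. Definition used: TGI = concentration required for complete inhibition of growth.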

Tests used:
Assay in all cases: DTP human tumour cell line panel, 48 h
ACHN renal = system: ACHN renal
MALME-3M melanoma = system: MALME-3M melanoma
M14 melanoma = system: M14 melanoma
SN12C renal = system: SN12C renal
TK-10 renal = system: TK-10 renal
SW-620 colon = system: SW-620 colon
OVCAR-8 ovarian = system: OVCAR-8 ovarian
LOX IMVI melanoma = system: LOX IMVI melanoma
NCI/ADR-RES ovarian = system: NCI/ADR-RES ovarian
RXF 393 renal = system: RXF 393 renal
OVCAR-4 ovarian = system: OVCAR-4 ovarian
COLO 205 colon = system: COLO 205 colon
CAKI-1 renal = system: CAKI-1 renal
MDA-MB-435 = system: MDA-MB-435
OVCAR-5 ovarian = system: OVCAR-5 ovarian
HL-60(TB) leukemia = system: HL-60(TB) leukemia
DU-145 prostate = system: DU-145 prostate
786-0 renal = system: 786-0 renal
HOP-62 NSCLC = system: HOP-62 NSCLC
CCRF-CEM leukemia = system: CCRF-CEM leukemia
U251 CNS = system: U251 CNS
SK-OV-3 ovarian = system: SK-OV-3 ovarian
RPMI-8226 leukemia = system: RPMI-8226 leukemia
NCI-H460 lung = system: NCI-H460 lung
HT29 colon = system: HT29 colon
HCT-116 colon = system: HCT-116 colon
PC-3 prostate = system: PC-3 prostate
NCI-H522 lung = system: NCI-H522 lung
NCI-H23 lung = system: NCI-H23 lung
OVCAR-3 ovarian = system: OVCAR-3 ovarian
HOP-92 NSCLC = system: HOP-92 NSCLC
HS 578T breast = system: HS 578T breast
SK-MEL-2 melanoma = system: SK-MEL-2 melanoma
T-47D breast = system: T-47D breast
SK-MEL-28 melanoma = system: SK-MEL-28 melanoma
BT-549 breast = system: BT-549 breast
K-562 leukemia = system: K-562 leukemia
MDA-MB-231 breast = system: MDA-MB-231 breast
SF-268 CNS = system: SF-268 CNS
KM12 colon = system: KM12 colon
EKVX NSCLC = system: EKVX NSCLC
NCI-H226 lung = system: NCI-H226 lung
UACC-62 melanoma = system: UACC-62 melanoma
A549 NSCLC = system: A549 NSCLC
SF-295 CNS = system: SF-295 CNS
MCF7 breast = system: MCF7 breast
UACC-257 melanoma = system: UACC-257 melanoma
SR leukemia = system: SR leukemia
A498 renal = system: A498 renal
UO-31 renal = system: UO-31 renal
HCT-15 colon = system: HCT-15 colon
IGROV1 ovarian = system: IGROV1 ovarian
SNB-75 CNS = system: SNB-75 CNS
SNB-19 CNS = system: SNB-19 CNS
SK-MEL-5 melanoma = system: SK-MEL-5 melanoma
SF-539 CNS = system: SF-539 CNS
MOLT-4 leukemia = system: MOLT-4 leukemia

`CCOC(=O)c1c(C)n([O-])c2cc(F)c(F)cc2[n+]1=O` showed a GI50 (ACHN renal) of 1730 nM, a TGI (ACHN renal) of 3230 nM and a GI50 (MALME-3M melanoma) of 717 nM. The TGI (MALME-3M melanoma) was 1830 nM, the GI50 (M14 melanoma) was 1090 nM and the TGI (M14 melanoma) was 2580 nM. It also gave a GI50 (SN12C renal) of 1010 nM, a TGI (SN12C renal) of 2180 nM and a GI50 (TK-10 renal) of 17400 nM. For the same compound, the TGI (TK-10 renal) was 32500 nM, the GI50 (SW-620 colon) was 428 nM and the TGI (SW-620 colon) was 1570 nM. It also gave a GI50 (OVCAR-8 ovarian) of 880 nM, a TGI (OVCAR-8 ovarian) of 2470 nM and a GI50 (LOX IMVI melanoma) of 514 nM. The TGI (LOX IMVI melanoma) was 1630 nM, the GI50 (NCI/ADR-RES ovarian) was 432 nM and the TGI (NCI/ADR-RES ovarian) was 1980 nM. The GI50 (RXF 393 renal) was 1800 nM, the TGI (RXF 393 renal) was 5760 nM and the GI50 (OVCAR-4 ovarian) was 1720 nM. It also gave a TGI (OVCAR-4 ovarian) of 3920 nM, a GI50 (COLO 205 colon) of 1940 nM and a TGI (COLO 205 colon) of 4540 nM. The GI50 (CAKI-1 renal) was 1630 nM, the TGI (CAKI-1 renal) was 3040 nM and the GI50 (MDA-MB-435) was 1560 nM. It also gave a TGI (MDA-MB-435) of 3110 nM, a GI50 (OVCAR-5 ovarian) of 1780 nM and a TGI (OVCAR-5 ovarian) of 3200 nM. For the same compound, the GI50 (HL-60(TB) leukemia) was 105 nM, the GI50 (DU-145 prostate) was 3270 nM and the TGI (DU-145 prostate) was 9010 nM. The GI50 (786-0 renal) was 6730 nM, the TGI (786-0 renal) was 19800 nM and the GI50 (HOP-62 NSCLC) was 2100 nM. The TGI (HOP-62 NSCLC) was 3740 nM, the GI50 (CCRF-CEM leukemia) was 1100 nM and the TGI (CCRF-CEM leukemia) was 7840 nM. The GI50 (U251 CNS) was 1510 nM, the TGI (U251 CNS) was 3040 nM and the GI50 (SK-OV-3 ovarian) was 1930 nM. For the same compound, the TGI (SK-OV-3 ovarian) was 3480 nM, the GI50 (RPMI-8226 leukemia) was 6180 nM and the TGI (RPMI-8226 leukemia) was 28200 nM. For the same compound, the GI50 (NCI-H460 lung) was 2880 nM, the TGI (NCI-H460 lung) was 15900 nM and the GI50 (HT29 colon) was 516 nM. It also gave a TGI (HT29 colon) of 3190 nM, a GI50 (HCT-116 colon) of 351 nM and a TGI (HCT-116 colon) of 1280 nM. The GI50 (PC-3 prostate) was 1650 nM, the TGI (PC-3 prostate) was 3590 nM and the GI50 (NCI-H522 lung) was 1040 nM. The TGI (NCI-H522 lung) was 2720 nM, the GI50 (NCI-H23 lung) was 1880 nM and the TGI (NCI-H23 lung) was 3780 nM. It also gave a GI50 (OVCAR-3 ovarian) of 1100 nM, a TGI (OVCAR-3 ovarian) of 2420 nM and a GI50 (HOP-92 NSCLC) of 1100 nM. For the same compound, the TGI (HOP-92 NSCLC) was 3080 nM, the GI50 (HS 578T breast) was 1730 nM and the TGI (HS 578T breast) was 5060 nM. It also gave a GI50 (SK-MEL-2 melanoma) of 2800 nM, a GI50 (T-47D breast) of 1870 nM and a TGI (T-47D breast) of 3690 nM. The GI50 (SK-MEL-28 melanoma) was 1240 nM, the TGI (SK-MEL-28 melanoma) was 2580 nM and the GI50 (BT-549 breast) was 1840 nM. For the same compound, the TGI (BT-549 breast) was 3640 nM, the GI50 (K-562 leukemia) was 697 nM and the TGI (K-562 leukemia) was over 20400 nM. The GI50 (MDA-MB-231 breast) was 955 nM, the TGI (MDA-MB-231 breast) was 2580 nM and the GI50 (SF-268 CNS) was 1570 nM. The TGI (SF-268 CNS) was 3690 nM, the GI50 (KM12 colon) was 15400 nM and the TGI (KM12 colon) was 35600 nM. It also gave a GI50 (EKVX NSCLC) of 1960 nM, a TGI (EKVX NSCLC) of 3980 nM and a GI50 (NCI-H226 lung) of 1940 nM. For the same compound, the TGI (NCI-H226 lung) was 3940 nM, the GI50 (UACC-62 melanoma) was 1470 nM and the TGI (UACC-62 melanoma) was 2910 nM. It also gave a GI50 (A549 NSCLC) of 6780 nM, a TGI (A549 NSCLC) of 26000 nM and a GI50 (SF-295 CNS) of 1740 nM. It also gave a TGI (SF-295 CNS) of 3410 nM, a GI50 (MCF7 breast) of 4320 nM and a TGI (MCF7 breast) of over 37400 nM. For the same compound, the GI50 (UACC-257 melanoma) was 1700 nM, the TGI (UACC-257 melanoma) was 3690 nM and the GI50 (SR leukemia) was 48.2 nM. For the same compound, the TGI (SR leukemia) was over 100000 nM, the GI50 (A498 renal) was 15900 nM and the TGI (A498 renal) was 30000 nM. It also gave a GI50 (UO-31 renal) of 1440 nM, a TGI (UO-31 renal) of 2850 nM and a GI50 (HCT-15 colon) of 455 nM. For the same compound, the TGI (HCT-15 colon) was 2040 nM, the GI50 (IGROV1 ovarian) was 491 nM and the GI50 (SNB-75 CNS) was 1910 nM. It also gave a TGI (SNB-75 CNS) of 3540 nM, a GI50 (SNB-19 CNS) of 1530 nM and a TGI (SNB-19 CNS) of 2860 nM. For the same compound, the GI50 (SK-MEL-5 melanoma) was 2310 nM, the TGI (SK-MEL-5 melanoma) was 5450 nM and the GI50 (SF-539 CNS) was 3910 nM. It also gave a TGI (SF-539 CNS) of 8840 nM, a GI50 (MOLT-4 leukemia) of 541 nM and a TGI (MOLT-4 leukemia) of 6620 nM.
